Assay results as given in ChEMBL document CHEMBL6109124, “Identification of effective anti-osteosarcoma agents via screening of an in-house NQO1-targeted compound library” (Bioorg Med Chem, 2025).
The source made the active and inactive calls. The rule behind the calls is not given here.

Columns and labels:
[1] = Toxicity in human MNNG cell xenografted Balb/c mouse assessed as mortality at 15 to 45 mg/kg, iv administered every 2 days for 3 weeks and measured every other day during compound dosing; type: organism-based; settings: in vivo, 504 h, dose 15-45 mg/kg, time 21 day
HOS-TE85 [2] = experiment: Cell cycle arrest in human MNNG cells assessed as accumulation of cells at G2/M phase at 10 uM measured after 24 hrs by propidium iodide staining based flow cytometry (reference value: 39.4%); type: functional
[3] = Cytotoxicity against HUVEC assessed as cell growth inhibition measured after 72 hrs by MTT assay; type: toxicity, cell-based; settings: human, HUVEC cells
[4] = Toxicity in human MNNG cell xenografted Balb/c mouse assessed as effect on kidney at 15 to 45 mg/kg, iv administered every 2 days for 3 weeks and measured post last dose by H and E staining based microscopy; type: organism-based; settings: in vivo, 504 h, dose 15-45 mg/kg, time 21 day
[5] = Toxicity in human MNNG cell xenografted Balb/c mouse assessed as reduction in Cr level at 15 to 45 mg/kg, iv administered every 2 days for 3 weeks and measured post last dose; type: organism-based; settings: in vivo, 504 h, dose 15-45 mg/kg, time 21 day
HOS-TE85 [6] = experiment: Cell cycle arrest in human MNNG cells assessed as accumulation of cells at S phase at 2.5 uM measured after 24 hrs by propidium iodide staining based flow cytometry (reference value: 39.4%); type: functional
HOS-TE85 [7] = experiment: Cytotoxicity against human MNNG cells assessed as cell growth inhibition at 10 uM measured after 72 hrs by MTT assay relative to control; type: functional; settings: read-out: GI
HOS-TE85 [8] = experiment: Induction of apoptosis in human MNNG cells assessed as early apoptotic cells at 2.5 uM measured after 48 hrs by Alexa Fluor 488 Annexin V/propidium iodide staining based flow cytometry (reference value: 0.69%); type: functional
[9] = Toxicity in human MNNG cell xenografted Balb/c mouse assessed as effect on heart at 15 to 45 mg/kg, iv administered every 2 days for 3 weeks and measured post last dose by H and E staining based microscopy; type: organism-based; settings: in vivo, 504 h, dose 15-45 mg/kg, time 21 day
HOS-TE85 [10] = experiment: Cell cycle arrest in human MNNG cells assessed as accumulation of cells at G0/G1 phase at 10 uM measured after 24 hrs by propidium iodide staining based flow cytometry (reference value: 51.4%); type: functional
HOS-TE85 [11] = experiment: Cell cycle arrest in human MNNG cells assessed as accumulation of cells at G2/M phase at 1 uM measured after 24 hrs by propidium iodide staining based flow cytometry (reference value: 39.4%); type: functional
HOS-TE85 [12] = experiment: Induction of apoptosis in human MNNG cells assessed as necrotic cells at 1 uM measured after 48 hrs by Alexa Fluor 488 Annexin V/propidium iodide staining based flow cytometry (reference value: 0.04%); type: functional
HOS-TE85 [13] = experiment: Induction of apoptosis in human MNNG cells assessed as early apoptotic cells at 1 uM measured after 48 hrs by Alexa Fluor 488 Annexin V/propidium iodide staining based flow cytometry (reference value: 0.69%); type: functional
HOS-TE85 [14] = experiment: Antitumor activity against human MNNG cells xenografted in Balb/c mouse assessed as reduction in number of live cells in tumor at 15 to 45 mg/kg, iv administered every 2 days for 3 weeks and measured post last dose by H and E staining based microscopy; type: functional, organism-based; settings: dose 15-45 mg/kg, time 21.0 day
[15] = Toxicity in human MNNG cell xenografted Balb/c mouse assessed as body weight loss at 15 to 45 mg/kg, iv administered every 2 days for 3 weeks and measured every other day during compound dosing; type: organism-based; settings: in vivo, 504 h, dose 15-45 mg/kg, time 21 day
HOS-TE85 [16] = experiment: Cell cycle arrest in human MNNG cells assessed as accumulation of cells at S phase at 10 uM measured after 24 hrs by propidium iodide staining based flow cytometry (reference value: 39.4%); type: functional
HOS-TE85 [17] = experiment: Induction of apoptosis in human MNNG cells assessed as viable cells at 2.5 uM measured after 48 hrs by Alexa Fluor 488 Annexin V/propidium iodide staining based flow cytometry (reference value: 98.8%); type: functional; settings: read-out: Activity
HOS-TE85 [18] = experiment: Cell cycle arrest in human MNNG cells assessed as accumulation of cells at S phase at 1 uM measured after 24 hrs by propidium iodide staining based flow cytometry (reference value: 39.4%); type: functional
[19] = Selectivity index, ratio of IC50 for cytotoxicity against HUVEC to IC50 for cytotoxicity against human MNNG cells; type: toxicity, cell-based; settings: HUVEC and human MNNG cells, read-out: Ratio IC50
HOS-TE85 [20] = experiment: Antitumor activity against human MNNG cells xenografted in Balb/c mouse assessed as tumor growth inhibition at 30 mg/kg, iv administered every 2 days for 3 weeks and measured daily during compound dosing relative to control; type: functional; settings: HOS-TE85, 504 h, time 21 day, read-out: TGI
[21] = Toxicity in human MNNG cell xenografted Balb/c mouse assessed as effect on spleen at 15 to 45 mg/kg, iv administered every 2 days for 3 weeks and measured post last dose by H and E staining based microscopy; type: organism-based; settings: in vivo, 504 h, dose 15-45 mg/kg, time 21 day
HOS-TE85 [22] = experiment: Induction of apoptosis in human MNNG cells assessed as viable cells at 10 uM measured after 48 hrs by Alexa Fluor 488 Annexin V/propidium iodide staining based flow cytometry (reference value: 98.8%); type: functional; settings: read-out: Activity
[23] = Toxicity in human MNNG cell xenografted Balb/c mouse assessed as effect on liver at 15 to 45 mg/kg, iv administered every 2 days for 3 weeks and measured post last dose by H and E staining based microscopy; type: organism-based; settings: in vivo, 504 h, dose 15-45 mg/kg, time 21 day
HOS-TE85 [24] = experiment: Induction of reactive oxygen species generation in human MNNG cells measured after 3 hrs by DCFH-DA probe based fluorescence assay; type: functional, cell-based; settings: dose 1-10 µM
HOS-TE85 [25] = experiment: Antitumor activity against human MNNG cells xenografted in Balb/c mouse assessed as tumor growth inhibition at 15 mg/kg, iv administered every 2 days for 3 weeks and measured daily during compound dosing relative to control; type: functional; settings: HOS-TE85, 504 h, time 21 day, read-out: TGI

With `Cc1cc2c(cc1C)-c1oc(CN3CCOCC3)c(C)c1C(=O)C2=O` the Activity [1] was “Non-toxic”, the Activity (HOS-TE85 [2]) was 10.2% and the IC50 at 72 h [3] was 19 µM. The Activity [4] was “Non-toxic”, the Activity [5] was “Toxic” and the Activity (HOS-TE85 [6]) was 37.8%. For the same compound, the inhibition of growth at 10 µM (HOS-TE85 [7]) was 99.5%, the Activity (HOS-TE85 [8]) was 10.6% and the Activity [9] was “Non-toxic”. It also gave an Activity (HOS-TE85 [10]) of 63.7%, an Activity (HOS-TE85 [11]) of 9.2% and an Activity (HOS-TE85 [12]) of 0.38%. For the same compound, the Activity (HOS-TE85 [13]) was 3.34%, the Activity (HOS-TE85 [14]) was “Active” and the Activity [15] was “Non-toxic”. For the same compound, the Activity (HOS-TE85 [16]) was 26.1%, the viability at 2.5 µM (HOS-TE85 [17]) was 73.6% and the Activity (HOS-TE85 [18]) was 41.1%. The selectivity ratio [19] was 13.3, the inhibition in vivo at 30 mg/kg (HOS-TE85 [20]) was 63.4% and the Activity [21] was “Non-toxic”. For the same compound, the viability at 10 µM (HOS-TE85 [22]) was 58.8%, the Activity [23] was “Non-toxic” and the Activity (HOS-TE85 [24]) was “Dose-dependent-effect”. For the same compound, the inhibition in vivo at 15 mg/kg (HOS-TE85 [25]) was 48.2%.
